{
  "source": "patent US9447074B2",
  "about": "“Compounds” (Glaxo Group Limited, priority 2011, dated 2016)",
  "origin": "cited, not measured here",
  "key": {"[1]": {"test_system": "allergic rhinitis", "conditions": "dosed intranasally, phase I/II"}, "[2]": {"test_system": "allergic rhinitis", "conditions": "phase II"}, "[3]": {"test_system": "B-Cell non-Hodgkin's lymphoma (NHL)"}, "[4]": {"test_system": "B lymphoma (BKS-2)", "conditions": "murine model of B lymphoma (BKS-2)"}},
  "data": [
    {"smiles": "Oc1cccc(Nc2ncc(F)c(Nc3cccc(O)c3)n2)c1", "note": "[Example R112]", "values": [
      {"measurement": "PGD2", "setting": "[1]", "result": "statistically significant decrease"},
      {"measurement": "clinical safety", "setting": "[1]", "result": "safe across a range of indicators"},
      {"measurement": "efficacy versus placebo", "setting": "[2]", "result": "lack of efficacy versus placebo"}
    ]},
    {"smiles": "COc1cc(Nc2ncc(F)c(Nc3ccc4c(n3)N(COP(=O)(O)O)C(=O)C(C)(C)O4)n2)cc(OC)c1OC", "note": "[Example R788, fostamatinib disodium]", "values": [
      {"measurement": "therapeutic benefit", "setting": "[3]; patients with DLBCL and CLL/SLL", "result": "therapeutic benefit"},
      {"measurement": "tolerability", "setting": "[3]; patients with relapsed or refractory B-Cell NHL", "result": "well-tolerated"}
    ]},
    {"smiles": "COc1cc(/C=C/C(=O)CC(=O)/C=C/c2ccc(O)c(OC)c2)ccc1O", "note": "[curcumin]", "values": [
      {"measurement": "tumour burden as measured by the total splenocyte number", "setting": "[4]", "result": "significant reduction of tumour burden"}
    ]}
  ]
}
